In the supplement of paper PMC10307832:

Key:
Test in all cases: relative viability (nuclei count vs DMSO), 5 days (fraction); higher = more cells survive
Axitinib + AZD7762 = compound: CNC(=O)c1ccccc1Sc1ccc2c(/C=C/c3ccccn3)n[nH]c2c1 [Axitinib] + NC(=O)Nc1cc(-c2cccc(F)c2)sc1C(=O)N[C@H]1CCCNC1 [AZD7762] (partner 0.2 µM)
How it was run: (§1)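 A single step with final 0.05% Triton X-100, 1% formaldehyde and 1 ug/ml Hoechst fixed the cells and stained nuclei 5 days after treatment. Lung cancer cell lines in 1536-well plates had been treated by pin tool the day after seeding with one drug alone or a fixed anchor-drug dose plus five library-drug doses (not always all listed) in √10 steps, and nuclei were counted on 4× images. Relative viability is the ratio of nuclei in treated wells to nuclei in vehicle wells, taken as the median of duplicate plates.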

Bemcentinib + Decitabine = compound: Nc1nc(Nc2ccc3c(c2)CC[C@@H](N2CCCC2)CC3)nn1-c1cc2c(nn1)-c1ccccc1CCC2 [Bemcentinib] + Nc1ncn([C@H]2C[C@H](O)[C@@H](CO)O2)c(=O)n1 [Decitabine] (partner 2 µM)
How it was run: as §1

Axitinib + Dasatinib = compound: CNC(=O)c1ccccc1Sc1ccc2c(/C=C/c3ccccn3)n[nH]c2c1 [Axitinib] + Cc1nc(Nc2ncc(C(=O)Nc3c(C)cccc3Cl)s2)cc(N2CCN(CCO)CC2)n1 [Dasatinib] (partner 0.075 µM)
How it was run: as §1

Axitinib + Phenformin = compound: CNC(=O)c1ccccc1Sc1ccc2c(/C=C/c3ccccn3)n[nH]c2c1 [Axitinib] + N=C(N)NC(=N)NCCc1ccccc1 [Phenformin] (partner 250 µM)
How it was run: as §1

Row | Cell Line | relative viability (Axitinib + AZD7762; first compound 0.005 µM) | relative viability (Axitinib + AZD7762; first compound 0.01581 µM) | relative viability (Axitinib + AZD7762; first compound 0.05 µM) | relative viability (Axitinib + AZD7762; first compound 0.1581 µM) | relative viability (Axitinib + AZD7762; first compound 0.5 µM) | relative viability (Bemcentinib + Decitabine; first compound 0.04 µM) | relative viability (Bemcentinib + Decitabine; first compound 0.1265 µM) | relative viability (Bemcentinib + Decitabine; first compound 0.4 µM) | relative viability (Bemcentinib + Decitabine; first compound 1.265 µM) | relative viability (Bemcentinib + Decitabine; first compound 4 µM) | relative viability (Axitinib + Dasatinib; first compound 0.005 µM) | relative viability (Axitinib + Dasatinib; first compound 0.01581 µM) | relative viability (Axitinib + Dasatinib; first compound 0.05 µM) | relative viability (Axitinib + Dasatinib; first compound 0.1581 µM) | relative viability (Axitinib + Dasatinib; first compound 0.5 µM) | relative viability (Axitinib + Phenformin; first compound 0.005 µM) | relative viability (Axitinib + Phenformin; first compound 0.01581 µM) | relative viability (Axitinib + Phenformin; first compound 0.05 µM) | relative viability (Axitinib + Phenformin; first compound 0.1581 µM) | relative viability (Axitinib + Phenformin; first compound 0.5 µM)
1 | LU99A | 0.433 | 0.451 | 0.397 | 0.39 | 0.415 | 0.918 | 0.882 | 0.899 | 0.975 | 0.987 | 0.626 | 0.563 | 0.589 | 0.577 | 0.475 | 0.784 | 0.823 | 0.981 | 0.88 | 0.91
2 | LXF-289 | 1.16 | 1.06 | 1.11 | 1.06 | 1.18 | 0.431 | 0.323 | 0.417 | 0.398 | 0.364 | 0.242 | 0.208 | 0.285 | 0.304 | 0.271 | 0.534 | 0.518 | 0.526 | 0.508 | 0.516
3 | NCI-H23 | 0.328 | 0.216 | 0.23 | 0.241 | 0.288 | 0.305 | 0.302 | 0.297 | 0.31 | 0.328 | 1.04 | 0.872 | 0.933 | 0.778 | 0.803 | 0.577 | 0.842 | 0.857 | 0.708 | 0.847
4 | NCI-H322M | 0.564 | 0.525 | 0.579 | 0.548 | 0.612 | 0.686 | 0.731 | 0.716 | 0.841 | 0.704 | 0.253 | 0.231 | 0.239 | 0.259 | 0.246 | 0.886 | 0.754 | 0.812 | 0.712 | 0.989
5 | NCI-H358 | 0.529 | 0.509 | 0.626 | 0.512 | 0.635 | 0.202 | 0.209 | 0.211 | 0.212 | 0.263 | 0.116 | 0.153 | 0.155 | 0.142 | 0.146 | 0.344 | 0.32 | 0.332 | 0.309 | 0.388
6 | NCI-H441 | 1.08 | 1.02 | 1.24 | 1.09 | 1.59 | 0.208 | 0.276 | 0.218 | 0.236 | 0.255 | 0.592 | 0.722 | 0.595 | 0.575 | 0.604 | 0.929 | 0.803 | 0.882 | 0.76 | 0.834
7 | NCI-H460 | 0.693 | 0.576 | 0.757 | 0.636 | 1.02 | 0.479 | 0.595 | 0.605 | 0.483 | 0.5 | 0.429 | 0.515 | 0.607 | 0.49 | 0.441 | 0.553 | 0.515 | 0.583 | 0.518 | 0.678
8 | NCI-H522 | 0.754 | 0.924 | 0.787 | 0.9 | 0.794 | 0.759 | 0.789 | 0.657 | 0.558 | 0.619 | 1.51 | 0.842 | 0.883 | 0.898 | 0.728 | 0.537 | 0.669 | 0.698 | 0.555 | 0.658
